Measurements reported in patent US10130615B2, “Benzomorphan analogs and the use thereof” (priority 2014, dated 2018).
Where two headings read alike, the source gives them in different places.

Columns and labels:
[1] = biological target: T1, κ-opioid receptor (Homo sapiens, UniProt P41145); assay: κ-opioid receptor β-Arr2 activity response, U2OS cells; type: cell-based; set-up: expressed in transfected cells; host or cells: U-2 OS
[2] = biological target: T2, μ-opioid receptor (Homo sapiens, UniProt P35372); assay: μ-opioid receptor GTPγS functional assay, U2OS cells; settings: for Emax: read-out: GTPγS μ Emax
T2 sequence (P35372 whole entry, species assumed): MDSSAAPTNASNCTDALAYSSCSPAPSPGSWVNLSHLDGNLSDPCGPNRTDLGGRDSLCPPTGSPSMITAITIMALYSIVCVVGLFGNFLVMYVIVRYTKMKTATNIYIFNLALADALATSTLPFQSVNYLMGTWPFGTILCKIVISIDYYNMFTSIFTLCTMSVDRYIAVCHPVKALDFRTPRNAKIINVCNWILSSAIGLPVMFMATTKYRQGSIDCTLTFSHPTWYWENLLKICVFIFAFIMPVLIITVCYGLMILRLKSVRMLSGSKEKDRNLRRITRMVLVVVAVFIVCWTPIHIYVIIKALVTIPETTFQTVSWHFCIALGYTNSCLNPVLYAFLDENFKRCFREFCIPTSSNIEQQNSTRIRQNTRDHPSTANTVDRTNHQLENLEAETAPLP

[3] = biological target: T2, μ-opioid receptor; assay: biochemical; set-up: purchased Perkin Elmer, Shelton, Conn; host or cells: HEK-293 or CHO; settings: HEK-293 or CHO cells; for Emax: relative to DAMGO, read-out: GTPγS μ Emax; for EC50: read-out: GTPγS μ EC50
[4] = biological target: T2, μ-opioid receptor; assay: cell-based; set-up: purchased Perkin Elmer, Shelton, Conn; settings: U2OS cells; for Emax: read-out: β-Arr2 μ Emax
[5] = biological target: T1, κ-opioid receptor; assay: κ-opioid receptor GTPγS functional assay, U2OS cells; type: biochemical; set-up: expressed in transfected cells; host or cells: U-2 OS
Description: (§1) Plates were incubated for 30 min at a temperature of about 25° C. with shaking.

[6] = biological target: T2, μ-opioid receptor; assay: μ-opioid receptor radioligand binding assay ([3H]-diprenorphine); set-up: purchased Perkin Elmer, Shelton, Conn; host or cells: HEK-293 or CHO
Description: μ-opioid Receptor Binding Assay Procedures: Radioligand dose-displacement binding assays for μ-opioid receptors used 0.3 nM [^3H]-diprenorphine (Perkin Elmer, Shelton, Conn.), with […] membrane protein/well in a final volume of 500 μl binding buffer (10 mM MgCl2, 1 mM EDTA, 5% DMSO, 50 mM HEPES, pH 7.4). Reactions were carried out in the absence or presence of increasing concentrations of unlabeled naloxone. All reactions were conducted in 96-deep well polypropylene plates for 2 hr at room temperature. […] The data were analyzed using the one-site competition curve fitting functions in GraphPad PRISM™ v. 3.0 or higher (San Diego, Calif.), or an in-house function for one-site competition curve-fitting.

[7] = biological target: T1, κ-opioid receptor; assay: κ-opioid receptor [35S]GTPγS functional assay, HEK-293 or CHO cells; type: biochemical; set-up: expressed in transfected cells; host or cells: HEK-293; settings: for Emax: relative to U69,593
Description: as §1

[8] = biological target: T1, κ-opioid receptor; assay: κ-opioid receptor radioligand binding assay ([3H]-U69,593); set-up: expressed in transfected cells; host or cells: HEK-293
Description: κ-opioid Receptor Binding Assay Procedures: Membranes from recombinant HEK-293 cells expressing the human κ opioid receptor (κ) (cloned in house) were prepared by lysing cells in ice cold hypotonic buffer (2.5 mM MgCl2, 50 mM HEPES, pH 7.4) (10 mL/10 cm dish) followed by homogenization with a tissue grinder/Teflon pestle. Membranes were collected by centrifugation at 30,000×g for 15 min at 4° C. and pellets were resuspended in hypotonic buffer to a final concentration of 1-3 mg/mL. Protein concentrations were determined using the BioRad protein assay reagent with bovine serum albumen as standard. Aliquots of κ receptor membranes were stored at −80° C.
Radioligand dose displacement assays used 0.4 nM [^3H]-U69,593 (GE Healthcare, Piscataway, N.J.; 40 Ci/mmole) with 15 μg membrane protein (recombinant κ opioid receptor expressed in HEK 293 cells; in-house prep) in a final volume of 200 μl binding buffer (5% DMSO, 50 mM Trizma base, pH 7.4). Non-specific binding was determined in the presence of 10 μM unlabeled naloxone or U69,593. All reactions were performed in 96-well polypropylene plates for 1 hr at a temperature of about 25° C.

[9] = U2OS cells, read-out: β-Arr2 κ EC50
[10] = U2OS cells, read-out: GTPγS κ EC50
[11] = HEK-293 or CHO cells, read-out: Ki (nM) Opioid Receptor μ
[12] = HEK-293 or CHO cells, read-out: GTPγS κ EC50
[13] = HEK-293 or CHO cells, read-out: Ki (nM) Opioid Receptor κ

T1 sequence (P41145 whole entry): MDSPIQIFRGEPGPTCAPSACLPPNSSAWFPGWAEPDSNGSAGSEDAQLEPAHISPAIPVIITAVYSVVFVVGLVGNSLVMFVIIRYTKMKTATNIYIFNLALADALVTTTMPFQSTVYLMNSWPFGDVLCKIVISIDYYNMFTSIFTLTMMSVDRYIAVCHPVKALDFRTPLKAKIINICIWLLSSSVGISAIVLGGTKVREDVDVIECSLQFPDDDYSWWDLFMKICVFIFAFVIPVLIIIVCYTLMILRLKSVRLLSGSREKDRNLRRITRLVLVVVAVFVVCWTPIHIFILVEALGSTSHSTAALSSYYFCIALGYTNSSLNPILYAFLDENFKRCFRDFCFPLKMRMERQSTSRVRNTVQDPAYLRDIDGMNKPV

| SMILES | Emax ([1]; U2OS cells) [%] | EC50 [1, 9] [nM] | EC50 [2] [nM] | Emax [2] [%] | Emax [3] [%] | Emax [4] [%] | Emax ([5]; U2OS cells) [%] | EC50 [5, 10] [nM] | Ki [6, 11] [nM] | EC50 [7, 12] [nM] | Emax ([7]; HEK-293 or CHO cells) [%] | Ki [8, 13] [nM] | EC50 [3] [nM] | EC50 ([4]; read-out: β-Arr2 μ EC50) [nM] | EC50 [1] [nM] | EC50 [5] [nM] | Ki [6] [nM] | EC50 [7] [nM] | Ki [8] [nM] |
| --- | --- | --- | --- | --- | --- | --- | --- | --- | --- | --- | --- | --- | --- | --- | --- | --- | --- | --- | --- |
| C[C@H]1[C@H]2Cc3ccc(O)cc3[C@]1(CCNC(=O)Cc1ccc(C(=O)O)cc1)CCN2CC1CC1 [Compound 31, 4-(2-((2-((2R,6R,11R)-3-(cyclopropyl-methyl)-8-hydroxy-11-methyl-2,3,4,5-tetrahydro-2,6-methanobenzo[d]azocin-6(1H)-yl)ethyl)amino)-2-oxoethyl)-benzoic acid] | 29.7 ± 5.04 | 53.4 ± 8.62 | 8.77 ± 1.37 | 58 ± 4.73 | 0 | -1.25 | 104 ± 3.48 | 18.5 ± 2.16 | 25.1 ± 7.56 | 94.2 ± 33.8 | 88.7 ± 6.89 | 18.4 ± 3.6 |  |  |  |  |  |  |  |
| COC(=O)[C@H](C)NCC[C@]12CCN(CC3CC3)[C@H](Cc3ccc(OC)cc31)[C@@H]2C [Compound 38, methyl (2-((2R,6R,11R)-3-(cyclopropyl-methyl)-8-methoxy-11-methyl-2,3,4,5-tetrahydro-2,6-methanobenzo[d]azocin-6(1H)-yl)ethyl)-L-alaninate] | 70 ± 2 | 141 ± 45.5 | 137 ± 16.1 | 53 ± 3.51 | 15.8 ± 1.03 | -0.17 ± 0.93 | 112 ± 2.91 | 2.11 ± 0.23 | 94.7 ± 18.6 | 287 ± 30 | 109 ± 5.46 | 0.78 ± 0.14 | 551 ± 173 |  |  |  |  |  |  |
| C[C@H]1[C@H]2Cc3ccc(O)cc3[C@]1(CCNC(=O)c1ccc(C(=O)O)cc1)CCN2CC1CC1 [Compound 32, 4-((2-((2R,6R,11R)-3-(cyclopropyl-methyl)-8-hydroxy-11-methyl-2,3,4,5-tetrahydro-2,6-methanobenzo[d]azocin-6(1H)-yl)ethyl)carbamoyl)benzoic acid] | 11.3 ± 1.2 | 26.7 ± 10.5 | 2.16 ± 0.38 | 57.3 ± 5.04 | -1 | -1 | 97.7 ± 4.67 | 35.7 ± 5.29 | 5.62 ± 1.41 | 144 ± 25.4 | 91.3 ± 9.94 | 35 ± 5.97 |  |  |  |  |  |  |  |
| C[C@H]1[C@H]2Cc3ccc(O)cc3[C@]1(CCCCN[C@@H](Cc1ccccc1)C(N)=O)CCN2CC1CC1 [Compound 23, (S)-2-((4-((2R,6R,11R)-3-(cyclopropyl-methyl)-8-hydroxy-11-methyl-2,3,4,5-tetrahydro-2,6-methanobenzo[d]azocin-6(1H)-yl)butyl)amino)-3-phenyl-propanamide] | 30 ± 0.58 | 0.16 ± 0.055 | 0.28 ± 0.073 | 56 ± 3.06 | 1 | -1.5 | 104 ± 4.06 | 0.079 ± 0.01 | 0.2 ± 0.012 | 1.49 ± 0.58 | 99 ± 6.35 | 0.048 ± 0.01 |  |  |  |  |  |  |  |
| COc1ccc2c(c1)[C@]1(CCOCc3ccccc3)CCN(CC3CC3)[C@H](C2)[C@@H]1C [Compound 45, (2R,6S,11R)-6-(2-(benzyloxy)ethyl)-3-(cyclopropylmethyl)-8-methoxy-11-methyl-1,2,3,4,5,6-hexahydro-2,6-methanobenzo[d]azocine] | 84 ± 2.08 | 26.7 ± 8.55 | 38 ± 2.09 | 103 ± 6.47 | 16.3 ± 0.88 | 1.33 ± 0.33 | 96.3 ± 5.17 | 0.95 ± 0.14 | 543 ± 116 | 16.3 ± 0.74 | 104 ± 5.03 | 0.16 ± 0.03 | 267 ± 20.1 |  |  |  |  |  |  |
| C[C@H]1[C@H]2Cc3ccc(O)cc3[C@]1(CCCC(=O)N(C)C)CCN2CC1CCC1 [Compound 28, 4-((2R,6R,11R)-3-(cyclobutylmethyl)-8-hydroxy-11-methyl-2,3,4,5-tetrahydro-2,6-methanobenzo[d]azocin-6(1H)-yl)-N,N-dimethylbutanamide] | 45 ± 2.08 | 2.37 ± 0.62 | 2.71 ± 0.67 | 57.3 ± 6.57 | 1 | 3.7 ± 0.49 | 104 ± 2.85 | 0.49 ± 0.016 | 1.45 ± 0.013 | 4.58 ± 0.38 | 95.3 ± 1.45 | 0.22 ± 0.056 |  | 30.5 ± 4.44 |  |  |  |  |  |
| COc1ccc2c(c1)[C@]1(CCO)CCN(CC3CC3)[C@H](C2)[C@@H]1C [Compound 43, 2-((2R,6S,11R)-3-(cyclopropylmethyl)-8-methoxy-11-methyl-2,3,4,5-tetrahydro-2,6-methanobenzo[d]azocin-6(1H)-yl)ethan-1-ol] | 59.3 ± 3.18 |  | 99 ± 5.84 | 107 ± 5.83 | 22 ± 1.58 | -1 | 102 ± 3.71 |  |  |  | 97.7 ± 5.36 |  | 1150 ± 199 |  | 494 ± 140 | 17.8 ± 1.45 | 233 ± 46.9 | 355 ± 63.6 | 3.63 ± 0.7 |
| COC(=O)[C@H](Cc1ccccc1)NCCCC[C@]12CCN(CC3CC3)[C@H](Cc3ccc(O)cc31)[C@@H]2C [Compound 27] | 12.7 ± 1.86 | 0.27 ± 0.11 | 0.27 ± 0.058 | 22.3 ± 2.85 | 1 | 1 | 106 ± 7.13 | 0.15 ± 0.023 | 0.071 ± 0.021 | 0.6 ± 0.12 | 61.7 ± 4.33 | 0.054 ± 0.01 |  |  |  |  |  |  |  |
| COC(=O)[C@H](CCCCN)NCCCC[C@]12CCN(CC3CC3)[C@H](Cc3ccc(O)cc31)[C@@H]2C [Compound 26, methyl (4-((2R,6R,11R)-3-(cyclopropyl-methyl)-8-hydroxy-11-methyl-2,3,4,5-tetrahydro-2,6-methanobenzo[d]azocin-6(1H)-yl)butyl)-L-lysinate] | 17.5 ± 2.72 | 0.081 ± 0.019 | 0.51 ± 0.054 | 40 ± 1.73 | 0.33 ± 0.67 | 0 | 102 ± 3.48 | 0.14 | 0.73 ± 0.1 | 0.19 ± 0.058 | 51 ± 2.04 | 0.053 |  |  |  |  |  |  |  |
| C[C@H]1[C@H]2Cc3ccc(O)cc3[C@]1(CCCCN[C@@H](CCCCN)C(=O)O)CCN2CC1CC1 [Compound 25, (4-((2R,6R,11R)-3-(cyclopropyl-methyl)-8-hydroxy-11-methyl-2,3,4,5-tetrahydro-2,6-methanobenzo[d]azocin-6(1H)-yl)butyl)-L-lysine] | 50 ± 0.58 | 0.1 ± 0.019 | 1.29 ± 0.11 | 48.3 ± 0.67 | 1 | -1.4 | 99 ± 4.58 | 0.17 ± 0.038 | 3.58 ± 1.45 | 2.33 ± 0.51 | 104 ± 5.03 | 0.077 ± 0.014 |  |  |  |  |  |  |  |
